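Tested at 5 concentrations; 48 h exposure; 96-well plates; endpoints linearly interpolated, else capped at highest concentration. GI50 = concentration required for 50% inhibition of growth.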 Activity calls are given as the source filed them. Rule as the data show it: active = GI50 up to about 1.1 µM and inactive = higher.
What was measured:
Experiment in all cases: inhibition of tumour cell growth, NCI panel, 48 h
786-0 = test system: 786-0
A498 = test system: A498
A549 = test system: A549
ACHN = test system: ACHN
CAKI-1 = test system: CAKI-1
CCRF-CEM = test system: CCRF-CEM
COLO 205 = test system: COLO 205
DMS-114 = test system: DMS-114
DMS-273 = test system: DMS-273
EKVX = test system: EKVX
HCC 2998 = test system: HCC 2998
HCT-116 = test system: HCT-116
HCT-15 = test system: HCT-15
HL-60 = test system: HL-60
HOP-18 = test system: HOP-18
HOP-62 = test system: HOP-62
HOP-92 = test system: HOP-92
HT-29 = test system: HT-29
IGROV-1 = test system: IGROV-1
K562 = test system: K562
KM-20L2 = test system: KM-20L2
KM12 = test system: KM12
LXFL 529 = test system: LXFL 529
M14 = test system: M14
M19-MEL = test system: M19-MEL
MOLT-4 = test system: MOLT-4
Malme-3M = test system: Malme-3M
NCI-H23 = test system: NCI-H23
NCI-H460 = test system: NCI-H460
NCI-H522 = test system: NCI-H522
OVCAR-3 = test system: OVCAR-3
OVCAR-4 = test system: OVCAR-4
OVCAR-5 = test system: OVCAR-5
OVCAR-8 = test system: OVCAR-8
RPMI-8226 = test system: RPMI-8226
RXF 393 = test system: RXF 393
SF-268 = test system: SF-268
SF-295 = test system: SF-295
SF-539 = test system: SF-539
SK-MEL-28 = test system: SK-MEL-28
SK-MEL-2 = test system: SK-MEL-2
SK-MEL-5 = test system: SK-MEL-5
SK-OV-3 = test system: SK-OV-3
SN12C = test system: SN12C
SNB-19 = test system: SNB-19
SNB-75 = test system: SNB-75
SNB-78 = test system: SNB-78
SW-620 = test system: SW-620
TK-10 = test system: TK-10
U-251 = test system: U-251
UACC-257 = test system: UACC-257
UACC-62 = test system: UACC-62
UO-31 = test system: UO-31
XF498 = test system: XF498
DLD-1 = test system: DLD-1
LOX IMVI = test system: LOX IMVI
NCI-H226 = test system: NCI-H226
SR = test system: SR

SMILES: NC1=NC2=C(CCCC2)C(c2cccs2)S1 (configuration not stated)
- GI50 (786-0): 84.5 µM (inactive)
- GI50 (A498): 72.6 µM (inactive)
- GI50 (A549): 93.3 µM (inactive)
- GI50 (ACHN): > 100 µM (inactive)
- GI50 (CAKI-1): > 100 µM (inactive)
- GI50 (CCRF-CEM): 55 µM (inactive)
- GI50 (COLO 205): > 100 µM (inactive)
- GI50 (DMS-114): 42.8 µM (inactive)
- GI50 (DMS-273): > 100 µM (inactive)
- GI50 (EKVX): > 100 µM (inactive)
- GI50 (HCC 2998): > 100 µM (inactive)
- GI50 (HCT-116): > 100 µM (inactive)
- GI50 (HCT-15): > 100 µM
- GI50 (HL-60): 8.73 µM (inactive)
- GI50 (HOP-18): 33.5 µM (inactive)
- GI50 (HOP-62): > 100 µM (inactive)
- GI50 (HOP-92): 47.8 µM (inactive)
- GI50 (HT-29): > 100 µM (inactive)
- GI50 (IGROV-1): > 100 µM (inactive)
- GI50 (K562): 56.9 µM (inactive)
- GI50 (KM-20L2): > 100 µM (inactive)
- GI50 (KM12): > 100 µM (inactive)
- GI50 (LXFL 529): > 100 µM (inactive)
- GI50 (M14): > 100 µM (inactive)
- GI50 (M19-MEL): > 100 µM (inactive)
- GI50 (MOLT-4): 36.8 µM (inactive)
- GI50 (Malme-3M): 92.9 µM (inactive)
- GI50 (NCI-H23): > 100 µM (inactive)
- GI50 (NCI-H460): > 100 µM (inactive)
- GI50 (NCI-H522): 27.9 µM (inactive)
- GI50 (OVCAR-3): 59.8 µM (inactive)
- GI50 (OVCAR-4): 86.5 µM (inactive)
- GI50 (OVCAR-5): > 100 µM (inactive)
- GI50 (OVCAR-8): > 100 µM (inactive)
- GI50 (RPMI-8226): 61.7 µM (inactive)
- GI50 (RXF 393): 38.5 µM (inactive)
- GI50 (SF-268): 95.1 µM (inactive)
- GI50 (SF-295): > 100 µM (inactive)
- GI50 (SF-539): > 100 µM (inactive)
- GI50 (SK-MEL-28): > 100 µM (inactive)
- GI50 (SK-MEL-2): > 100 µM (inactive)
- GI50 (SK-MEL-5): 54.5 µM (inactive)
- GI50 (SK-OV-3): > 100 µM (inactive)
- GI50 (SN12C): > 100 µM (inactive)
- GI50 (SNB-19): > 100 µM (inactive)
- GI50 (SNB-75): > 100 µM (inactive)
- GI50 (SNB-78): > 100 µM (inactive)
- GI50 (SW-620): > 100 µM (inactive)
- GI50 (TK-10): > 100 µM (inactive)
- GI50 (U-251): > 100 µM (inactive)
- GI50 (UACC-257): 49.7 µM (inactive)
- GI50 (UACC-62): > 100 µM (inactive)
- GI50 (UO-31): 5.43 µM (inactive)
- GI50 (XF498): > 100 µM (inactive)

SMILES: CCCCc1c2c(nc3c1CCCC3=O)C(=O)CCC2
- GI50 (786-0): > 100 µM (inactive)
- GI50 (A498): > 100 µM (inactive)
- GI50 (A549): > 100 µM (inactive)
- GI50 (ACHN): > 100 µM (inactive)
- GI50 (CCRF-CEM): > 100 µM (inactive)
- GI50 (COLO 205): > 100 µM (inactive)
- GI50 (DLD-1): > 100 µM (inactive)
- GI50 (DMS-114): > 100 µM (inactive)
- GI50 (DMS-273): > 100 µM (inactive)
- GI50 (EKVX): > 100 µM (inactive)
- GI50 (HCC 2998): > 100 µM (inactive)
- GI50 (HCT-116): > 100 µM (inactive)
- GI50 (HCT-15): > 100 µM
- GI50 (HL-60): > 100 µM (inactive)
- GI50 (HOP-18): > 100 µM (inactive)
- GI50 (HOP-62): > 100 µM (inactive)
- GI50 (HOP-92): > 100 µM (inactive)
- GI50 (HT-29): > 100 µM (inactive)
- GI50 (IGROV-1): > 100 µM (inactive)
- GI50 (K562): > 100 µM (inactive)
- GI50 (KM-20L2): > 100 µM (inactive)
- GI50 (KM12): > 100 µM (inactive)
- GI50 (LOX IMVI): > 100 µM (inactive)
- GI50 (LXFL 529): > 100 µM (inactive)
- GI50 (M14): > 100 µM (inactive)
- GI50 (M19-MEL): > 100 µM (inactive)
- GI50 (MOLT-4): > 100 µM (inactive)
- GI50 (Malme-3M): > 100 µM (inactive)
- GI50 (NCI-H226): > 100 µM (inactive)
- GI50 (NCI-H23): > 100 µM (inactive)
- GI50 (NCI-H460): > 100 µM (inactive)
- GI50 (NCI-H522): > 100 µM (inactive)
- GI50 (OVCAR-3): > 100 µM (inactive)
- GI50 (OVCAR-4): > 100 µM (inactive)
- GI50 (OVCAR-5): > 100 µM (inactive)
- GI50 (OVCAR-8): > 100 µM (inactive)
- GI50 (RPMI-8226): > 100 µM (inactive)
- GI50 (RXF 393): > 100 µM (inactive)
- GI50 (SF-268): > 100 µM (inactive)
- GI50 (SF-295): > 100 µM (inactive)
- GI50 (SF-539): > 100 µM (inactive)
- GI50 (SK-MEL-28): > 100 µM (inactive)
- GI50 (SK-MEL-2): > 100 µM (inactive)
- GI50 (SK-MEL-5): > 100 µM (inactive)
- GI50 (SK-OV-3): > 100 µM (inactive)
- GI50 (SN12C): > 100 µM (inactive)
- GI50 (SNB-19): > 100 µM (inactive)
- GI50 (SNB-75): 62.4 µM (inactive)
- GI50 (SNB-78): > 100 µM (inactive)
- GI50 (SR): > 100 µM (inactive)
- GI50 (SW-620): > 100 µM (inactive)
- GI50 (TK-10): > 100 µM (inactive)
- GI50 (U-251): > 100 µM (inactive)
- GI50 (UACC-257): > 100 µM (inactive)
- GI50 (UACC-62): > 100 µM (inactive)
- GI50 (UO-31): > 100 µM (inactive)
- GI50 (XF498): > 100 µM (inactive)

SMILES: Cc1cc(NS(=O)(=O)c2ccc(NC(=O)c3cccc4c(Nc5ccc(S(=O)(=O)Nc6cc(C)on6)cc5)c5ccc(Cl)cc5nc34)cc2)no1
- GI50 (786-0): > 100 µM (inactive)
- GI50 (A498): 55 µM (inactive)
- GI50 (A549): 61.1 µM (inactive)
- GI50 (ACHN): 85.7 µM (inactive)
- GI50 (CAKI-1): > 100 µM (inactive)
- GI50 (CCRF-CEM): 41.9 µM (inactive)
- GI50 (COLO 205): 56.1 µM (inactive)
- GI50 (DLD-1): 63.2 µM (inactive)
- GI50 (DMS-114): 38.9 µM (inactive)
- GI50 (DMS-273): 85.1 µM (inactive)
- GI50 (EKVX): > 100 µM (inactive)
- GI50 (HCC 2998): 56 µM (inactive)
- GI50 (HCT-116): 23.2 µM (inactive)
- GI50 (HCT-15): 45.9 µM
- GI50 (HL-60): 35 µM (inactive)
- GI50 (HOP-18): 14.9 µM (inactive)
- GI50 (HOP-62): 61.5 µM (inactive)
- GI50 (HOP-92): 24.3 µM (inactive)
- GI50 (HT-29): > 100 µM (inactive)
- GI50 (IGROV-1): 59.4 µM (inactive)
- GI50 (K562): 40.8 µM (inactive)
- GI50 (KM-20L2): 74.1 µM (inactive)
- GI50 (KM12): 69.2 µM (inactive)
- GI50 (LOX IMVI): 53.7 µM (inactive)
- GI50 (LXFL 529): 43.2 µM (inactive)
- GI50 (M14): 32.1 µM (inactive)
- GI50 (M19-MEL): 41.9 µM (inactive)
- GI50 (MOLT-4): 56 µM (inactive)
- GI50 (Malme-3M): > 100 µM (inactive)
- GI50 (NCI-H23): 45.1 µM (inactive)
- GI50 (NCI-H460): 65 µM (inactive)
- GI50 (NCI-H522): 31.4 µM (inactive)
- GI50 (OVCAR-3): 68.5 µM (inactive)
- GI50 (OVCAR-4): 49.5 µM (inactive)
- GI50 (OVCAR-5): > 100 µM (inactive)
- GI50 (OVCAR-8): > 100 µM (inactive)
- GI50 (RPMI-8226): 47.1 µM (inactive)
- GI50 (RXF 393): 29.2 µM (inactive)
- GI50 (SF-268): 34.5 µM (inactive)
- GI50 (SF-295): > 100 µM (inactive)
- GI50 (SF-539): 37.7 µM (inactive)
- GI50 (SK-MEL-28): 41 µM (inactive)
- GI50 (SK-MEL-2): > 100 µM (inactive)
- GI50 (SK-MEL-5): 56.4 µM (inactive)
- GI50 (SK-OV-3): > 100 µM (inactive)
- GI50 (SN12C): 51.2 µM (inactive)
- GI50 (SNB-19): 28.1 µM (inactive)
- GI50 (SNB-75): 19.7 µM (inactive)
- GI50 (SNB-78): 91.6 µM (inactive)
- GI50 (SW-620): 76.7 µM (inactive)
- GI50 (TK-10): > 100 µM (inactive)
- GI50 (U-251): 35.5 µM (inactive)
- GI50 (UACC-257): > 100 µM (inactive)
- GI50 (UACC-62): 35.2 µM (inactive)
- GI50 (UO-31): 25.3 µM (inactive)
- GI50 (XF498): 56.6 µM (inactive)

— ChEMBL document CHEMBL1201862, “PubChem BioAssay data set” (2004)
